# Laboratory results taken from patent publication US12622910B2, “Inhibitors of Bruton's tyrosine kinase and methods of their use” (Janssen Pharmaceutica NV, priority 2021, dated 2026).
# Like-named read-outs stand apart in the source and are kept apart here. Marks after values point to notes of the source that are not given here.
# Assays:
# [1] = Preclinical PK, oral and IV; assay type: in vivo, rat; details: for Cmax / Tmax / AUC(0-inf): po, 5 mg/kg; for AUC(0-inf): read-out: Oral AUCinf
# Liver microsomal binding = assay type: in vitro ADME; details: liver microsomes, read-out: % Free in liver microsomes
# Experimental: Additional Data on Preclinical PK Profile—Protein binding of the compound of Formula (III) was studied using an equilibrium dialysis method in plasma from human, cynomolgus monkey, beagle dog, Sprague Dawley rat, CD-1 mouse, and guinea pig at 0.25, 2.5, and 25 μM. […] In human and monkey, the plasma protein binding was concentration dependent. […] Free fraction of the compound of Formula (III) in liver microsomes from various species ranged from 75.1% to 87.9% at 0.25 mg/mL and from 58.9% to 86.5% at 1.0 mg/mL (Table 17). […] In hepatocytes, the compound of Formula (III) turnover followed a similar trend, with T1/2 ranging from 75.3 minutes in monkey to 278.1 minutes in human.
# B-cell activation = assay: Rat whole blood assay, anti-IgD-induced B-cell activation (CD86); assay type: cell-based, Wistar rat; details: anti-IgD stimulation, n=2, read-out: IC50, inhibition of B-cell activation in rat whole blood
# Description: The compound of Formula (III) Inhibits B-cell receptor activation—Rat whole blood assays were used to assess the ability of the compound of Formula (III) to inhibit activation of primary B cells in whole blood. The assay used anti-IgD stimulation to trigger B-cell activation. Cell activation in freshly isolated blood was quantified by staining for cell surface expression of B220 to identify B cells and a cell activation marker CD86.
# Rat Whole Blood Assay-Anti-rat IgD was purchased from Bio-Rad AbD Serotec, Ltd. (Oxford, United Kingdom). Rat B220-PE and rat CD86-FITC were purchased from eBioscience (San Diego, CA). Lysing buffer was purchased from BD Biosciences (San Diego, CA). To determine the potency of each compound, inhibition of anti-IgD-induced activation of B cells in rat whole blood was assessed by flow cytometry. […]
# Inhibition percentage was determined by the following equation: Inhibition %=(ActBstim−ActBcompound)×100/(ActBstim−ActBunstim), where […], ActBunstim, and ActBcompound refer to the percentage of activated B cells of the stimulated (no compound), unstimulated (no antibody), and compound treated wells, respectively. The IC50 for each compound was then calculated from the inhibition % of the titrations using a 4-PL fit. […]
# PXR = assay: Puracyp DPX2 luciferase-reporter cell line (CYP3A4 induction); assay type: in vitro ADME
# Experimental: To assess the potential of the compound of Formula (III) to be a time-dependent inhibitor of CYP3A, human liver microsomes were preincubated for 30 minutes at 37° C. with the compound of Formula (III) at concentrations up to 10 μM, and CYP3A activity was measured using testosterone as a probe substrate. […] The potential of the compound of Formula (III) to induce CYPs at the transcriptional level was assessed using Puracyp™ DPX2 (CYP3A4, PXR) and DRE (CYP1A2, AhR) luciferase-reporter cell lines; rifampicin and omeprazole were used as positive controls for CYP3A and CYP1A induction, respectively. The activation by the compound of Formula (III) was <20% of positive control values for PXR (6.6% and 14.1% at 1 and 10 μM change, respectively) or AhR (0.1% and 0.3% change, respectively). […] Potential involvement of various CYP isoforms in the metabolism of the compound of Formula (III) was investigated by measuring the parent compound remaining after 1-hour incubation with the compound of Formula (III) (1 μM) with recombinant CYPs (rCYPs) at 100 pmol P450/mL in the presence of 1 mM NADPH at 37° C. The only isozyme that produced notable the compound of Formula (III) turnover with <1% parent remaining after 1-hour incubation was CYP3A4 (FIG. 24). […]
# MDCK-MDR1 (Pgp) = assay: MDCK-MDR1 permeability and efflux
# Experimental: In vitro Absorption, Distribution, Metabolism, and Excretion—The compound of Formula (III) was assessed at a concentration of 5 μM in cell permeability models.
# CYP1A = assay: CYP induction in plated human hepatocytes, phenacetin probe; assay type: in vitro ADME; details: 48 hours
# [2] = Blood-to-plasma concentration ratio; assay type: in vitro ADME; details: rat, fresh blood
# [3] = Preclinical PK, oral and IV; assay type: in vivo, monkey
# [4] = rat, in vivo, 5 mg/kg crystalline suspension PO (0.5% HPMC)
# [5] = rat, in vivo, 5 mg/kg solution PO (20% HPβCD)
structure (smiles),measurement,setting,value
"C=CC(=O)N[C@H]1CCC[C@H]1NC(=O)c1sc2nccc3c2c1NC(=O)N3c1cnc(CC(C)C)cc1C (atropisomer, axis not shown) [compound of Formula (III), N-((1R,2S)-2-Acrylamidocyclopentyl)-5-(S)-(6-isobutyl-4-methylpyridin-3-yl)-4-oxo-4,5-dihydro-3H-1-thia-3,5,8-triazaacenaphthylene-2-carboxamide]",F,[1]; 5 mg/kg crystalline suspension PO (0.5% HPMC),41 ± 19^b %
same,F,[1]; 5 mg/kg solution PO (20% HPβCD),28 ± 6^a; %
same,clearance,"[1]; rat, in vivo, iv",55 ± 2 mL/min/kg
same,half-life,"[1]; rat, in vivo, iv, read-out: IV T1/2 (converted)",0.4 h
same,Vd,"[1]; rat, in vivo, iv, read-out: Vss",1.9 ± 0.2 L/kg
same,Cmax,[1]; [4],133 ± 53 ng/mL
same,Tmax,[1]; [4],1.7 ± 0.6 h
same,AUC(0-inf),[1]; [4],626 ± 290 ng·h/mL
same,Cmax,[1]; [5],189 ± 81 ng/mL
same,Tmax,[1]; [5],0.5 h
same,AUC(0-inf),[1]; [5],425 ± 96 ng·h/mL
same,fraction unbound at 1 μM,"Liver microsomal binding; dog, 0.25 mg/mL",0.879
same,fraction unbound at 1 μM,"Liver microsomal binding; dog, 1.0 mg/mL",0.694
same,fraction unbound at 1 μM,"Liver microsomal binding; human, 0.25 mg/mL",0.758
same,fraction unbound at 1 μM,"Liver microsomal binding; human, 1.0 mg/mL",0.641
same,fraction unbound at 1 μM,"Liver microsomal binding; monkey, 0.25 mg/mL",0.751
same,fraction unbound at 1 μM,"Liver microsomal binding; monkey, 1.0 mg/mL",0.589
same,fraction unbound at 1 μM,"Liver microsomal binding; mouse, 1.0 mg/mL",0.82
same,fraction unbound at 1 μM,"Liver microsomal binding; rat, 0.25 mg/mL",0.84
same,fraction unbound at 1 μM,"Liver microsomal binding; rat, 1.0 mg/mL",0.865
same,IC50,B-cell activation,41 ± 11.7 nM
same,"PXR activation, % of positive control (rifampicin)",PXR; 1 μM,6.6%
same,"PXR activation, % of positive control (rifampicin)",PXR; 10 μM,14.1%
same,Efflux Ratio (BA/AB),MDCK-MDR1 (Pgp),>115
same,change in CYP1A enzyme activity,CYP1A; 1 μM,0.2%
same,change in CYP1A enzyme activity,CYP1A; 10 μM,1.0%
same,blood plasma ratio at 1 μM,[2],1.37
same,clearance,"[3]; monkey, in vivo, iv",3.1 ± 0.3 mL/min/kg
same,half-life,"[3]; monkey, in vivo, iv, read-out: IV T1/2 (converted)",4 h
same,Vd,"[3]; monkey, in vivo, iv, read-out: Vss",0.7 L/kg
same,Cmax,"[3]; monkey, in vivo, oral",1010 ± 94 ng/mL
same,Tmax,"[3]; monkey, in vivo, oral",1.7 ± 0.6 h
same,AUC(0-inf),"[3]; monkey, in vivo, oral, read-out: Oral AUCinf",10000 ± 2270 ng·h/mL
same,F,"[3]; oral, monkeys",75 ± 17%
